From patent publication US9944666B2, “Compounds that are S1P modulating agents and/or ATX modulating agents” (BIOGEN MA INC., priority 2012, dated 2018)

molecular target: T1, Human ATX protein (Homo sapiens, UniProt Q13822); test: ATX biochemical FRET assay with FS-3 substrate; settings: FS-3 2 μM, ATX 1.0 μg/mL, room temperature 2 hours, fluorescence 485/538 nm
T1 construct: made in house
Procedure, shortened: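 Purified human ATX (1.0 μg/mL final) preincubated with compound 30 min at room temperature in Tris pH 7.4 buffer with NaCl, KCl, CaCl2, MgCl2 and 1 mg/mL fatty acid-free BSA. FS-3 added to 2 μM final; 2 h at room temperature in the dark, fluorescence at ex 485/em 538 nm.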

SMILES | IC50 [nM]
O=C(O)C1CC2CCCC(C1)N2Cc1ccc2c(Cl)c(O[C@H]3CC[C@@H](C(F)(F)F)CC3)ccc2c1 (stereo partly drawn) [Example 111, 9-((5-Chloro-6-((cis-4-(trifluoromethyl)cyclohexyl)oxy)naphthalen-2-yl)methyl)-9-azabicyclo[3.3.1]nonane-3-carboxylic acid] | ≤ 250
O=C(O)C12CCC(NCc3ccc4c(C(F)(F)F)c(OC5CCC(C(F)(F)F)CC5)ccc4c3)(CC1)CC2 (stereo not drawn) [Example 144, 3-(4-{[5-trifluoromethyl-6-(4-trifluoromethyl-cyclohexyloxy)-naphthalen-2-ylmethyl]-amino}-bicyclo[2.2.2]oct-1-yl)-carboxylic acid] | ≤ 500
O=C(O)C1CC2(C1)CN(Cc1ccc3c(C(F)(F)F)c(O[C@H]4CC[C@@H](C(F)(F)F)CC4)ccc3c1)C2 [Example 146, 2-((5-(trifluoromethyl)-6-((cis-4-(trifluoromethyl)cyclohexyl)oxy)naphthalen-2-yl)methyl)-2-azaspiro[3.3]heptane-6-carboxylic acid] | ≤ 250
O=C(O)C1CC2CN(Cc3ccc4c(C(F)(F)F)c(OC5CCC(C(F)(F)F)CC5)ccc4c3)CC2C1 (stereo not drawn) [Example 154, 3-(5-trifluoromethyl-6-(4-trifluoromethyl-cyclohexyloxy)-naphthalen-2-ylmethyl)-3-azabicyclo[3.3.0]octane-7-carboxylic acid] | ≤ 250
O=C(O)C1CC2CCC(C1)N2C(=O)c1ccc2c(Cl)c(O[C@H]3CC[C@@H](C(F)(F)F)CC3)ccc2c1 (stereo partly drawn) [Example 186, 8-(5-chloro-6-((cis-4-(trifluoromethyl)cyclohexyl)oxy)-2-naphthoyl)-8-azabicyclo[3.2.1]octane-3-carboxylic acid] | ≤ 250
C[C@H]1CC[C@@H](Oc2ccc3cc(CN4C5CCC4CC(C(=O)O)C5)ccc3c2C#N)CC1 (stereo partly drawn) [Example 188, 8-((5-cyano-6-((cis-4-methylcyclohexyl)oxy)naphthalen-2-yl)methyl)-8-azabicyclo[3.2.1]octane-3-carboxylic acid] | ≤ 500
CC(c1ccc2c(C#N)c(O[C@H]3CC[C@@H](C)CC3)ccc2c1)N1C2CCC1CC(C(=O)O)C2 (stereo partly drawn) [Example 189, 8-(1-(5-cyano-6-((cis-4-methylcyclohexyl)oxy)naphthalen-2-yl)ethyl)-8-azabicyclo[3.2.1]octane-3-carboxylic acid] | ≤ 250
O=C(O)C1CC2CCC(C1)N2C(=O)c1ccc2c(C(F)(F)F)c(N[C@H]3CC[C@@H](C(F)(F)F)CC3)ccc2c1 (stereo partly drawn) [Example 190, 8-(5-(trifluoromethyl)-6-((cis-4-(trifluoromethyl)cyclohexyl)amino)-2-naphthoyl)-8-azabicyclo[3.2.1]octane-3-carboxylic acid] | ≤ 100
CC(C)(C)[C@H]1CC[C@H](Nc2ncc3cc(C(=O)N4C5CCCC4CC(C(=O)O)C5)ccc3n2)CC1 (stereo partly drawn) [Example 191, 9-(2-((trans-4-(tert-butyl)cyclohexyl)amino)quinazoline-6-carbonyl)-9-azabicyclo[3.3.1]nonane-3-carboxylic acid] | ≤ 100
CC(C)(C)[C@H]1CC[C@H](Nc2cc3ccc(C(=O)N4C5CCC4CC(C(=O)O)C5)cc3cn2)CC1 (stereo partly drawn) [Example 194, 8-(3-((trans-4-(tert-butyl)cyclohexyl)amino)isoquinoline-7-carbonyl)-8-azabicyclo[3.2.1]octane-3-carboxylic acid] | ≤ 100
O=C(O)C1CC2CCCC(C1)N2Cc1cc2ccc(O[C@H]3CC[C@@H](C(F)(F)F)CC3)c(C(F)(F)F)c2cn1 (stereo partly drawn) [Example 197, 9-((8-(trifluoromethyl)-7-((cis-4-(trifluoromethyl)cyclohexyl)oxy)isoquinolin-3-yl)methyl)-9-azabicyclo[3.3.1]nonane-3-carboxylic acid] | ≤ 500
CC[C@H]1CC[C@@H](Oc2ccc3nc(NC4C5CCCC4CC(C(=O)O)C5)ccc3c2C(F)(F)F)CC1 (stereo partly drawn) [Example 198, 9-((6-((cis-4-ethylcyclohexyl)oxy)-5-(trifluoromethyl)quinolin-2-yl)amino)bicyclo[3.3.1]nonane-3-carboxylic acid] | ≤ 100
CC[C@H]1CC[C@@H](Oc2ccc3cc(CN4C5CCCC4CC(C(=O)O)C5)ccc3c2C#N)CC1 (stereo partly drawn) [Example 199, 9-((5-cyano-6-((cis-4-ethylcyclohexyl)oxy)naphthalen-2-yl)methyl)-9-azabicyclo[3.3.1]nonane-3-carboxylic acid] | ≤ 100
CC[C@H]1CC[C@@H](Oc2ccc3cc(CN4C5CCC4CC(C(=O)O)C5)ccc3c2C#N)CC1 (stereo partly drawn) [Example 200, 8-((5-cyano-6-((cis-4-ethylcyclohexyl)oxy)naphthalen-2-yl)methyl)-8-azabicyclo[3.2.1]octane-3-carboxylic acid] | ≤ 500
O=C(O)C1CC2CCCC(C1)N2C(=O)c1ccc2c(Cl)c(O[C@H]3CC[C@@H](C(F)(F)F)CC3)ccc2c1 (stereo partly drawn) [Example 201, 9-(5-chloro-6-((cis-4-(trifluoromethyl)cyclohexyl)oxy)-2-naphthoyl)-9-azabicyclo[3.3.1]nonane-3-carboxylic acid] | ≤ 250
CCC(c1ccc2c(Cl)c(O[C@H]3CC[C@@H](C(F)(F)F)CC3)ccc2c1)N1C2CCC1CC(C(=O)O)C2 (stereo partly drawn) [Example 202, 8-(1-(5-chloro-6-((cis-4-(trifluoromethyl)cyclohexyl)oxy)naphthalen-2-yl)propyl)-8-azabicyclo[3.2.1]octane-3-carboxylic acid] | ≤ 100
C[C@H]1CC[C@@H](Oc2ccc3cc(C(=O)N4C5CCC4CC(C(=O)O)C5)ccc3c2Cl)CC1 (stereo partly drawn) [Example 203, 8-(5-chloro-6-((cis-4-methylcyclohexyl)oxy)-2-naphthoyl)-8-azabicyclo[3.2.1]octane-3-carboxylic acid] | ≤ 250
CCC(c1ccc2c(C(F)(F)F)c(O[C@H]3CC[C@@H](C(C)(F)F)CC3)ccc2c1)N1C2CCC1CC(C(=O)O)C2 (stereo partly drawn) [Example 204, 8-(1-(6-((cis-4-(1,1-difluoroethyl)cyclohexyl)oxy)-5-(trifluoromethyl)naphthalen-2-yl)propyl)-8-azabicyclo[3.2.1]octane-3-carboxylic acid] | ≤ 100
CC(c1ccc2c(Cl)c(O[C@H]3CC[C@@H](C)CC3)ccc2c1)N1C2CCC1CC(C(=O)O)C2 (stereo partly drawn) [Example 205, 8-(1-(5-chloro-6-((cis-4-methylcyclohexyl)oxy)naphthalen-2-yl)ethyl)-8-azabicyclo[3.2.1]octane-3-carboxylic acid] | ≤ 250
N#Cc1c(O[C@H]2CC[C@@H](C(F)(F)F)CC2)ccc2cc(C(=O)N3C4CCCC3CC(C(=O)O)C4)ccc12 (stereo partly drawn) [Example 206, 9-(5-cyano-6-((cis-4-(trifluoromethyl)cyclohexyl)oxy)-2-naphthoyl)-9-azabicyclo[3.3.1]nonane-3-carboxylic acid] | ≤ 100
C[C@H]1CC[C@@H](Oc2ccc3cc(CN4C5CCCC4CC(C(=O)O)C5)ccc3c2C#N)CC1 (stereo partly drawn) [Example 207, 9-((5-cyano-6-((cis-4-methylcyclohexyl)oxy)naphthalen-2-yl)methyl)-9-azabicyclo[3.3.1]nonane-3-carboxylic acid] | ≤ 100
C[C@H]1CC[C@@H](Oc2ccc3cc(C(=O)N4C5CCCC4CC(C(=O)O)C5)ccc3c2Cl)CC1 (stereo partly drawn) [Example 208, 9-(5-chloro-6-((cis-4-methylcyclohexyl)oxy)-2-naphthoyl)-9-azabicyclo[3.3.1]nonane-3-carboxylic acid] | ≤ 250
CC(F)(F)[C@H]1CC[C@@H](Oc2ccc3cc(CN4C5CCCC4CC(C(=O)O)C5)ccc3c2C(F)(F)F)CC1 (stereo partly drawn) [Example 209, 9-((6-((cis-4-(1,1-difluoroethyl)cyclohexyl)oxy)-5-(trifluoro-methyl)naphthalen-2-yl)methyl)-9-azabicyclo[3.3.1]nonane-3-carboxylic acid] | ≤ 100
CCC(c1ccc2c(Cl)c(O[C@H]3CC[C@@H](C)CC3)ccc2c1)N1C2CCC1CC(C(=O)O)C2 (stereo partly drawn) [Example 210, 8-(1-(5-chloro-6-((cis-4-methylcyclohexyl)oxy)naphthalen-2-yl)propyl)-8-azabicyclo[3.2.1]octane-3-carboxylic acid] | ≤ 100
CCC(c1ccc2c(Cl)c(O[C@H]3CC[C@@H](C)CC3)ccc2c1)N1C2CCCC1CC(C(=O)O)C2 (stereo partly drawn) [Example 211, 9-(1-(5-chloro-6-((cis-4-methylcyclohexyl)oxy)naphthalen-2-yl)propyl)-9-azabicyclo[3.3.1]nonane-3-carboxylic acid] | ≤ 100
CC[C@H]1CC[C@@H](Oc2ccc3cc(C(C)N4C5CCC4CC(C(=O)O)C5)ccc3c2C#N)CC1 (stereo partly drawn) [Example 212, 8-(1-(5-cyano-6-((cis-4-ethylcyclohexyl)oxy)naphthalen-2-yl)ethyl)-8-azabicyclo[3.2.1]octane-3-carboxylic acid] | ≤ 100
CC[C@H]1CC[C@@H](Oc2ccc3cc(C(C)N4C5CCCC4CC(C(=O)O)C5)ccc3c2C#N)CC1 (stereo partly drawn) [Example 213, 9-(1-(5-cyano-6-((cis-4-ethylcyclohexyl)oxy)naphthalen-2-yl)ethyl)-9-azabicyclo[3.3.1]nonane-3-carboxylic acid] | ≤ 100
CC(c1ccc2c(Cl)c(O[C@H]3CC[C@@H](C)CC3)ccc2c1)N1C2CCCC1CC(C(=O)O)C2 (stereo partly drawn) [Example 214, 9-(1-(5-chloro-6-((cis-4-methylcyclohexyl)oxy)naphthalen-2-yl)ethyl)-9-azabicyclo[3.3.1]nonane-3-carboxylic acid] | ≤ 100
CC[C@H]1CC[C@@H](Oc2ccc3cc(C(=O)N4C5CCC4CC(C(=O)O)C5)ccc3c2Cl)CC1 (stereo partly drawn) [Example 215, 8-(5-chloro-6-((cis-4-ethylcyclohexyl)oxy)-2-naphthoyl)-8-azabicyclo[3.2.1]octane-3-carboxylic acid] | ≤ 500
CC(c1ccc2c(C(F)(F)F)c(O[C@H]3CC[C@@H](C(C)(F)F)CC3)ccc2c1)N1C2CCC1CC(C(=O)O)C2 (stereo partly drawn) [Example 216, 8-(1-(6-((cis-4-(1,1-difluoroethyl)cyclohexyl)oxy)-5-(trifluoromethyl)naphthalen-2-yl)ethyl)-8-azabicyclo[3.2.1]octane-3-carboxylic acid] | ≤ 100
